Results from patent US20080311126A1, “Antisense Oligonucleotides Directed to Ribonucleotide Reducatase R2 and Uses Thereof in Combination Therapies for the Treatment of Cancer” (Genesense Technologies, Inc, priority 2004, published 2008).
Oligonucleotides are written 5' to 3', each unit as a sugar letter and its base; * is a phosphorothioate linkage, no mark a phosphodiester; rarer units and linkages stand in square brackets, end groups in braces. Plain capitals give the bases only. d = 2'-deoxy (DNA)

What was measured:
[1] = system: HT-29 human colon cancer cells; assay: HT-29 colon tumour xenograft in CD-1 nude mice; type: in vivo; conditions: HT-29 (colon); Mouse CD-1; CPT-11 study
Procedure: HT-29 human colon cancer cells (3×10^6 cells in 100 μl of PBS) were subcutaneously injected into the right flank of 6-7 weeks old female CD-1 nude mice. After the size of tumour reached an approximate volume of 50 mm^3, 4 days post tumour cell injection, mitomycin C was administered by bolus infusion into the tail vein at days 4, 11 and 18 with a dose of 3.5 mg/kg/week. Antitumour effect of mitomycin C was further compared to that of SEQ ID NO:1 in combination with mitomycin C. SEQ ID NO:1 was administered by bolus infusion into the tail vein every day at 6 mg/kg and mitomycin C was administered intravenously at days 4, 11 and 18 with a dose of 3.5 mg/kg/week, one hour after the treatments with SEQ ID NO:1. Control animals received saline alone for the same period as SEQ ID NO:1. All treatments were stopped at day 22. A day after the last treatment, tumours were excised from the animals and their weights were measured.
HT-29 human colon cancer cells (3×10^6 cells in 100 μl of PBS) were subcutaneously injected into the right flank of 5-6 week old female CD-1 nude mice. After the size of tumour reached an approximate volume of 100 mm^3, 7 days post tumour cell injection, SEQ ID NO:1 was administered by bolus infusion into the tail vein every other day at 10 mg/kg. Control animals received saline alone for the same period. Antitumour effect of SEQ ID NO:1 was further compared to that of CPT-11 alone or that of SEQ ID NO:1 in combination with CPT-11. CPT-11 was administered intraperitoneally for 5 days in a row from […] with a dose of 20 mg/kg in 100 μl saline. All treatments were stopped at day 32. A day after the last treatment, tumours were excised from the animals and their weights were measured.
HT-29 human colon cancer cells (3×10^6 cells in 100 μl of PBS) were subcutaneously injected into the right flank of 6-7 week old female CD-1 nude mice. Treatments started at day 5 post tumour cell injection, SEQ ID NO:1 and 5-FU were administered as outlined below: • Groups and treatment: • Group 1. Saline treated group: saline:0.1 ml/2 days, i.v.; • Group 2. SEQ ID NO:1 treated group: 10 mg/kg/2 days in 100 μL saline, i.v.; • Group 3. 5-FU treated group:13 mg/kg/5 days/week (one week on and one week off), i.v.; • Group 4. SEQ ID NO:1 plus 5-FU treated group.
HT-29 human colon cancer cells (3×10^6 cells in 100 μl of PBS) were subcutaneously injected into the right flank of 5-6 week old female CD-1 nude mice. Treatments started 4 days post tumour cell injection, SEQ ID NO: 1 and Capecitabine were administered as outlined below: • Group and Treatment: • Group 1: treated with 0.2 ml vehicle solution for capecitabine, o.p.; • Group 2: treated with 0.1 ml saline, i.v.; • Group 3: treated with 359 mg/kg/day×5/w Capecitabine in 0.2 ml vehicle solution, o.p.; • Group 4: treated with 10 mg/kg/2 days SEQ ID NO:1 in 0.1 ml saline i.v.; • Group 5: treated with 10 mg/kg/2 days SEQ ID NO:1 in 0.1 ml saline, i.v. plus 359 mg/kg/day×5/w capecitabine in 0.2 ml vehicle solution, o.p.

[2] = system: LS513 multi-drug resistant colon carcinoma cells; assay: LS513 multi-drug resistant colon carcinoma xenograft in SCID mice; type: in vivo, human; conditions: LS513 (colon) multi-drug resistant (CPT-11 sensitive); SCID
Procedure: LSS13 multi-drug resistant colon carcinoma cells (1×10^7 cells in 100 μl of PBS) were subcutaneously injected into the right flank of 6-7 weeks old female SCID mice. After the size of tumour reached an approximate volume of […], 8 days post tumour cell injection, SEQ ID NO:1 was administered by bolus infusion into the tail vein every other day at 10 mg/kg. Control animals received saline alone for the same period. Antitumour effect of SEQ ID NO:1 was further compared to that of CPT-11 alone or in combination. CPT-11 was administered i.p. for 5 days at a dose of 20 mg/kg/day. Antitumour activities were estimated by the inhibition of tumour volume, which was measured with caliper. Each point represents mean tumour volume calculated from 10 animals per experimental group. Tumour weights were measured after animals were sacrificed at the end of the treatment. These cells are not resistant to CPT-11 which was used as a positive control.

[3] = system: A2058 human melanoma cells; assay: A2058 melanoma xenograft in CD-1 nude mice; type: in vivo; conditions: A2058 (melanoma); Mouse CD-1
Procedure: A2058 human melanoma cells 1×10^7 cells in 100 μl of PBS) were subcutaneously injected into the right flank of 6-7 week old female CD-1 nude mice. A2058 is a metastatic melanoma cell line. After the size of tumour reached an approximate volume of 100 mm^3, 6 days post tumour cell injection, SEQ ID NO:1 was administered by bolus infusion into the tail vein every other day at 10 mg/kg. Control animals received saline alone for the same period. Antitumour effect of SEQ ID NO:1 was further compared to that of dacarbazine (DTIC) alone or that of SEQ ID NO:1 in combination with DTIC. DTIC was administered intravenously for 5 days in a row from day 6-10 at a dose of 80 mg/kg in 100 μl saline. All treatments were stopped at day 24. A day after the last treatment, tumours were excised from the animals and their weights were measured.

[4] = system: PC-3 human prostatic cancer cells; assay: PC-3 prostatic tumour xenograft in SCID mice; type: in vivo
Procedure: In both experiments, PC-3 human prostatic cancer cells (1×10^7 cells in 100 μl of PBS) were subcutaneously injected into the right flank of 6-7 weeks old male SCID mice. After the size of tumour reached an approximate volume of 50 mm^3, 14 days post tumour cell injection, SEQ ID NO:1 was administered by bolus infusion into the tail vein every other day at 10 mg/kg 18 times (FIG. 14A) or 17 times (FIG. 14B), respectively. Control animals received saline alone for the same period. Antitumour effect of SEQ ID NO:1 was further compared to that of mitoxantrone (Novantrone®) alone or in combination. Mitoxantrone was administered intravenously once at the beginning of the treatments at a dose of 2 mg/kg (FIG. 14A) or once a week for four weeks at a reduced dose of 0.8 mg/kg (FIG. 14B). All treatments were stopped at day 50 (FIG. 14A) or 48 (FIG. 14B), respectively. A day after the last treatment, tumours were excised from the animals and their weights were measured.

[5] = system: DU145 human prostatic cancer cells; assay: DU145 prostatic tumour xenograft in SCID mice; type: in vivo; conditions: for Tumour weight as % of saline control: DU145 (prostatic), Mouse SCID
Procedure: In both experiments, DU145 human prostatic cancer cells (1×10^7 cells in 100 μl of PBS) were subcutaneously injected into the right flank of 6-7 weeks old male SCID mice. After the size of tumour reached an approximate volume of 50 mm^3, 13 FIG. 15A) or 11 (FIG. 15B) days post tumour cell injection, SEQ ID NO:1 was administered by bolus infusion into the tail vein every other day at 10 mg/kg 15 times (FIG. 15A) or 14 times (FIG. 15B), respectively. Control animals received saline alone for the same period. Antitumour effect of SEQ ID NO:1 was further compared to that of mitoxantrone (Novantrone®) alone or in combination. Mitoxantrone was administered intravenously once at the beginning of the treatments at a dose of 2 mg/kg (FIG. 15A) or once a week for four weeks at a reduced dose of 0.8 mg/kg (FIG. 15B). All treatments were stopped at day 42 (FIG. 15A) or 38 (FIG. 15B); respectively. A day after the last treatment, tumours were excised from the animals and their weights were measured.

Hela S3 cells = assay: Relative colony forming efficiency, lipofectin +/- oligonucleotide 4 hours; type: cell-based, human; conditions: Hela S3 cervix carcinoma cells; averages of 2-8 determinations
Procedure, shortened: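 HeLa S3 cells were exposed to phosphorothioate antisense oligonucleotide (0.2 μM unless stated) with lipofectin for 4 h, then grown 7–10 days in 10% FBS medium. Methylene blue-stained colonies were counted and expressed as percent survival relative to lipofectin-only controls.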

A549 lung cell carcinoma = assay: Relative colony forming efficiency (Example 17, Table 13); type: cell-based, human; conditions: averages of 2-8 determinations
Procedure, shortened: (§1)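 Read-out: methylene blue-stained colonies scored and expressed as percent of control, given as % inhibition of colony forming ability. Cells had been exposed for four hours to phosphorothioate deoxyribonucleotides, usually 0.2 μM, complexed with 2.5 μg DOTMA/DOPE.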

[6] = system: Colo320 colon cell adenocarcinoma; assay: as above; type: cell-based, human; conditions: averages of 2-8 determinations
Procedure, shortened: as §1

[7] = system: H596 lung adenosquamous carcinoma cells; assay: as above; type: cell-based, human; conditions: averages of 2-8 determinations
Procedure, shortened: as §1

[8] = system: HCT116 colon cell carcinoma; assay: as above; type: cell-based, human; conditions: averages of 2-8 determinations
Procedure, shortened: as §1

[9] = system: HepG2 hepatocellular carcinoma; assay: as above; type: cell-based, human; conditions: averages of 2-8 determinations
Procedure, shortened: as §1

[10] = system: MDA PaCa-2 pancreatic cell carcinoma; assay: as above; type: cell-based, human; conditions: MIA PaCa-2 pancreatic cell carcinoma; averages of 2-8 determinations
Procedure, shortened: as §1

[11] = system: MDA-MB-231 breast cell adenocarcinoma; assay: as above; type: cell-based, human; conditions: averages of 2-8 determinations
Procedure, shortened: as §1

[12] = system: PC-3 prostrate cell adenocarcinoma; assay: as above; type: cell-based, human; conditions: averages of 2-8 determinations
Procedure, shortened: as §1

[13] = system: T-47D breast ductal carcinoma; assay: as above; type: cell-based, human; conditions: averages of 2-8 determinations
Procedure, shortened: as §1

[14] = system: T24 bladder cell carcinoma; assay: as above; type: cell-based, human; conditions: averages of 2-8 determinations
Procedure, shortened: as §1

| Molecule | Reduced relative colony forming efficiency, Hela S3 (% inhibition of colony forming ability) (Hela S3 cells) [%] | Reduced relative colony forming efficiency, A549 (% inhibition of colony forming ability) (A549 lung cell carcinoma) [%] | Reduced relative colony forming efficiency, Co1o320 (% inhibition of colony forming ability) [6] [%] | Reduced relative colony forming efficiency, 11596 (% inhibition of colony forming ability) [7] [%] | Reduced relative colony forming efficiency, HCT116 (% inhibition of colony forming ability) [8] [%] | Reduced relative colony forming efficiency, HepG2 (% inhibition of colony forming ability) [9] [%] | Reduced relative colony forming efficiency, MIA PaCa-2 (% inhibition of colony forming ability) [10] [%] | Reduced relative colony forming efficiency, MDA-MB-231 (% inhibition of colony forming ability) [11] [%] | Reduced relative colony forming efficiency, PC-3 (% inhibition of colony forming ability) [12] [%] | Reduced relative colony forming efficiency, T-47D (% inhibition of colony forming ability) [13] [%] | also measured |
| --- | --- | --- | --- | --- | --- | --- | --- | --- | --- | --- | --- |
| CCc1c2c(nc3ccc(OC(=O)N4CCC(N5CCCCC5)CC4)cc13)-c1cc3c(c(=O)n1C2)COC(=O)[C@]3(O)CC [CPT-11, Irinotecan, reference compound] | – | – | – | – | – | – | – | – | – | – | Tumour weight as % of saline control [1]: 36%; Tumour weight as % of saline control [2]: 47% |
| CN(C)/N=N/c1[nH]cnc1C(N)=O [DTIC, dacarbazine, reference compound] | – | – | – | – | – | – | – | – | – | – | Tumour weight as % of saline control [3]: 68% |
| O=C1c2c(O)ccc(O)c2C(=O)c2c(NCCNCCO)ccc(NCCNCCO)c21 [Novantrone, mitoxantrone] | – | – | – | – | – | – | – | – | – | – | antitumour effect (tumour weight) ([4]; FIG. 14B, SEQ ID NO:1 10 mg/kg 17 times, mitoxantrone 0.8 mg/kg once a week for four weeks): significant delay of tumour growth; Tumour weight as % of saline control ([4]; PC-3 (prostatic), Mouse SCID): 57%; Tumour weight as % of saline control ([5]; first of two value columns (two independent experiments)): 40%; Tumour weight as % of saline control ([5]; second of two value columns (two independent experiments)): 60%; antitumour effect (tumour weight) ([5]; FIG. 15B, SEQ ID NO:1 10 mg/kg 14 times, mitoxantrone 0.8 mg/kg once a week for four weeks): significant delay of tumour growth |
| CCTTGCCCTGAGAGATTCCT (antisense dC*dC*dT*dT*dG*dC*dC*dC*dT*dG*dA*dG*dA*dG*dA*dT*dT*dC*dC*dT) [AS-II-2083-20] | 84.58 | 90.65 | 87.28 | 82.98 | 87.46 | 93.64 | 71 | 68.88 | 32.03 | 89.32 | Reduced relative colony forming efficiency, A549 (% inhibition of colony forming ability) (A549 lung cell carcinoma; listed as AS-II-2083-20 *): 31.73%; Reduced relative colony forming efficiency, Co1o320 (% inhibition of colony forming ability) ([6]; listed as AS-II-2083-20 *): 52.54%; Reduced relative colony forming efficiency, 11596 (% inhibition of colony forming ability) ([7]; listed as AS-II-2083-20 *): 49.37%; Reduced relative colony forming efficiency, HCT116 (% inhibition of colony forming ability) ([8]; listed as AS-II-2083-20 *): 41.16%; Reduced relative colony forming efficiency, HepG2 (% inhibition of colony forming ability) ([9]; listed as AS-II-2083-20 *): 46.14%; Reduced relative colony forming efficiency, T-47D (% inhibition of colony forming ability) ([13]; listed as AS-II-2083-20 *): 43.61%; Reduced relative colony forming efficiency, T24 (% inhibition of colony forming ability) [14]: 82.43%; Reduced relative colony forming efficiency, T24 (% inhibition of colony forming ability) ([14]; listed as AS-II-2083-20 *): 9.52% |
| GAGCAGCCAGGACAGGACGG (antisense dG*dA*dG*dC*dA*dG*dC*dC*dA*dG*dG*dA*dC*dA*dG*dG*dA*dC*dG*dG) [AS-II-151-20] | 66.75 | 84.28 | 90.12 | 69.12 | 78.09 | 89.53 | 75.38 | 41.64 | 35.68 | 95.39 | – |
